# Measured values: ChEMBL document CHEMBL4014283, “Structural insights of SmKDAC8 inhibitors: Targeting Schistosoma epigenetics through a combined structure-based 3D QSAR, in vitro and synthesis strategy” (Bioorg Med Chem, 2017)
# Activity calls are given as the source filed them. The calls are words filed in the database; no cut-off is given here.
# Legend:
# [1] = molecular target: T1, Histone deacetylase 8 (Schistosoma mansoni) (UniProt A5H660); assay: Inhibition of Schistosoma mansoni KDAC8 at 30 uM using (FAM)-labeled peptide as substrate after 60 mins by microfluidic assay
# T1 sequence (whole entry): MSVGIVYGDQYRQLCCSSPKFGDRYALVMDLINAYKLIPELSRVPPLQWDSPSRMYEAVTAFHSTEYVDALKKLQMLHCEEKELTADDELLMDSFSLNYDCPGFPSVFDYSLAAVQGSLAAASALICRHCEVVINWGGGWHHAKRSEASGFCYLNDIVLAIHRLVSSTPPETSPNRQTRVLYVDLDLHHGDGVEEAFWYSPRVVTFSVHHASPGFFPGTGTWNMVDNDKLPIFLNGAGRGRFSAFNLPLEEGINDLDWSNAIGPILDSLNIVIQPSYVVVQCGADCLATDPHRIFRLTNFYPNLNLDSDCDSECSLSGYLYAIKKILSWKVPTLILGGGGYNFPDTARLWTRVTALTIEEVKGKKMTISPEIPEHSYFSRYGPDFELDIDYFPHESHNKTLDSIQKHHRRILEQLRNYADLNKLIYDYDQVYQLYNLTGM
# [2] = molecular target: T2, Histone deacetylase 8 (Schistosoma mansoni, UniProt A5H660); assay: Inhibition of Schistosoma mansoni KDAC8 using (FAM)-labeled peptide as substrate after 60 mins by microfluidic assay
# T2 sequence (A5H660 whole entry): T1 sequence (whole entry)
compound,measurement,setting,value
NC(=O)C[C@@H]1N=C(c2ccccc2)c2ccccc2N(CCCCC(=O)NO)C1=O,inhibition,[1],0%
same,IC50,[2]; read-out: IC50,> 30 µM
O=C(O)CC[C@H]1N=C(c2ccccc2)c2ccccc2NC1=O,inhibition,[1],0%
same,IC50,[2]; read-out: IC50,> 30 µM
Cc1c(C)c(S(=O)(=O)NC(=N)NCCC[C@@H]2N=C(c3ccccc3)c3ccccc3N(CCCCC(=O)NO)C2=O)c(C)c2c1OC(C)(C)C2,inhibition,[1],0%
same,IC50,[2]; read-out: IC50,> 30 µM
O=C(O)CCCCN1C(=O)[C@H](CC(=O)O)N=C(c2ccccc2)c2ccccc21,inhibition,[1],0%
same,IC50,[2]; read-out: IC50,> 30 µM
CC(C)(C)OC(=O)NCCCC[C@@H]1N=C(c2ccccc2)c2ccccc2NC1=O,inhibition,[1],0%
same,IC50,[2]; read-out: IC50,> 30 µM
O=C(CCCCCCC(=O)Nc1cccc(C(=O)O)c1)NO,IC50,[2]; read-out: pIC50 (converted),1.91 µM
CSCC[C@@H]1N=C(c2ccccc2)c2ccccc2NC1=O,inhibition,[1],0%
same,IC50,[2]; read-out: IC50,> 30 µM
CN(C)c1ccc(C(=O)NCc2ccc(C(=O)NO)cc2)cc1,IC50,[2]; read-out: pIC50 (converted),2.88 µM
O=C(O)CC[C@@H]1N=C(c2ccccc2)c2ccccc2N(CCCCC(=O)NO)C1=O,inhibition,[1],13.4%
same,IC50,[2]; read-out: IC50,> 30 µM
COC(=O)CCCCN1C(=O)[C@H](COC(C)(C)C)N=C(c2ccccc2)c2ccccc21,inhibition,[1],0%
same,IC50,[2]; read-out: IC50,> 30 µM
CC[C@H](C)[C@@H]1N=C(c2ccccc2)c2ccccc2N(CCCCC(=O)O)C1=O,inhibition,[1],0%
same,IC50,[2]; read-out: IC50,> 30 µM
C[C@@H]1N=C(c2ccccc2)c2ccccc2N(CCCCC(=O)NO)C1=O,inhibition,[1],16.9%
same,IC50,[2]; read-out: IC50,> 30 µM
CC(C)(C)OC[C@@H]1N=C(c2ccccc2)c2ccccc2NC1=O,inhibition,[1],0%
same,IC50,[2]; read-out: IC50,> 30 µM
COC(=O)CCCCN1C(=O)[C@H](Cc2ccc(OC(C)(C)C)cc2)N=C(c2ccccc2)c2ccccc21,inhibition,[1],0%
same,IC50,[2]; read-out: IC50,> 30 µM
O=C1CN=C(c2ccccc2)c2ccccc2N1 [RO-052921],inhibition,[1],9.5%
same,IC50,[2]; read-out: IC50,> 30 µM
O=C(CCCCN1C(=O)CN=C(c2ccccc2)c2ccccc21)NO,inhibition,[1],39.7%
same,IC50,[2]; read-out: IC50,> 30 µM
COC(=O)CCCCN1C(=O)[C@H](Cc2ccccc2)N=C(c2ccccc2)c2ccccc21,inhibition,[1],0%
same,IC50,[2]; read-out: IC50,> 30 µM
O=C(O)CCCCN1C(=O)[C@H](Cc2cncn2C(c2ccccc2)(c2ccccc2)c2ccccc2)N=C(c2ccccc2)c2ccccc21,inhibition,[1],0%
same,IC50,[2]; read-out: IC50,> 30 µM
CCCCCC(=O)NO,IC50,[2]; read-out: pIC50 (converted),2.51 µM
CC[C@H](C)[C@@H]1N=C(c2ccccc2)c2ccccc2N(CCCCC(=O)OC)C1=O,inhibition,[1],0%
same,IC50,[2]; read-out: IC50,> 30 µM
COC(=O)CCCCN1C(=O)[C@H](CC(=O)OC(C)(C)C)N=C(c2ccccc2)c2ccccc21,inhibition,[1],0%
same,IC50,[2]; read-out: IC50,> 30 µM
O=C(CCCCN1C(=O)[C@H](CCC(=O)NC(c2ccccc2)(c2ccccc2)c2ccccc2)N=C(c2ccccc2)c2ccccc21)NO,inhibition,[1],32.1%
same,IC50,[2]; read-out: IC50,> 30 µM
O=C(O)C[C@@H]1N=C(c2ccccc2)c2ccccc2NC1=O,inhibition,[1],0%
same,IC50,[2]; read-out: IC50,> 30 µM
"CCC(C)[C@@H]1N=C(c2ccccc2)c2ccccc2N(CCCCC(=O)NO)C1=O (single isomer, unassigned)",inhibition,[1],11.7%
same,IC50,[2]; read-out: IC50,> 30 µM
CC(C)[C@@H]1N=C(c2ccccc2)c2ccccc2N(CCCCC(=O)O)C1=O,inhibition,[1],0%
same,IC50,[2]; read-out: IC50,> 30 µM
CC(C)(C)OC(=O)n1cc(C[C@@H]2N=C(c3ccccc3)c3ccccc3NC2=O)c2ccccc21,inhibition,[1],11.9%
same,IC50,[2]; read-out: IC50,> 30 µM
COC(=O)CCCCN1C(=O)[C@H](CC(C)C)N=C(c2ccccc2)c2ccccc21,inhibition,[1],0%
same,IC50,[2]; read-out: IC50,> 30 µM
COC(=O)CCCCN1C(=O)[C@H](CCC(=O)OC(C)(C)C)N=C(c2ccccc2)c2ccccc21,inhibition,[1],0%
same,IC50,[2]; read-out: IC50,> 30 µM
COc1ccc(Cn2ccc3ccc(C(=O)NO)cc32)cc1,pIC50,[2],1.03 to 6.36
COC(=O)CCCCN1C(=O)[C@H](CCCCNC(=O)OC(C)(C)C)N=C(c2ccccc2)c2ccccc21,inhibition,[1],0%
same,IC50,[2]; read-out: IC50,> 30 µM
O=C(CC[C@H]1N=C(c2ccccc2)c2ccccc2NC1=O)NO,inhibition,[1],24%
same,IC50,[2]; read-out: IC50,> 30 µM
CCCCCCCC(=O)SCC/C=C/[C@@H]1CC(=O)NCc2nc(cs2)C2=N[C@@](C)(CS2)C(=O)N[C@@H](C(C)C)C(=O)O1 [LARGAZOLE],inhibition,[1],4%
same,IC50,[2]; read-out: IC50,> 30 µM
O=C(NO)c1cccc(NN(Cc2ccccc2)Cc2ccccc2)c1,IC50,[2]; read-out: pIC50 (converted),9.33 µM
O=C(O)CCCCN1C(=O)CN=C(c2ccccc2)c2ccccc21,inhibition,[1],0%
same,IC50,[2]; read-out: IC50,> 30 µM
"CC(OCc1ccccc1)[C@@H]1N=C(c2ccccc2)c2ccccc2NC1=O (single isomer, unassigned)",inhibition,[1],0%
same,IC50,[2]; read-out: IC50,> 30 µM
CC(C)(C)OC(=O)CC[C@@H]1N=C(c2ccccc2)c2ccccc2NC1=O,inhibition,[1],0%
same,IC50,[2]; read-out: IC50,> 30 µM
COC(=O)CCCCN1C(=O)[C@H](CCCNC(=N)NS(=O)(=O)c2c(C)c(C)c3c(c2C)CC(C)(C)O3)N=C(c2ccccc2)c2ccccc21,inhibition,[1],0%
same,IC50,[2]; read-out: IC50,> 30 µM
COC(=O)CCCCN1C(=O)[C@H](Cc2cncn2C(c2ccccc2)(c2ccccc2)c2ccccc2)N=C(c2ccccc2)c2ccccc21,inhibition,[1],2.5%
same,IC50,[2]; read-out: IC50,> 30 µM
O=C(CCCCN1C(=O)[C@H](CC(=O)NC(c2ccccc2)(c2ccccc2)c2ccccc2)N=C(c2ccccc2)c2ccccc21)NO,inhibition,[1],52.3%
same,IC50,[2]; read-out: IC50,26.3 µM
O=C(O)CCCCN1C(=O)[C@H](CC(=O)NC(c2ccccc2)(c2ccccc2)c2ccccc2)N=C(c2ccccc2)c2ccccc21,inhibition,[1],0%
same,IC50,[2]; read-out: IC50,> 30 µM
CN(C)Nc1cccc(C(=O)NO)c1,IC50,[2]; read-out: pIC50 (converted),1.58 µM
O=C(O)CCCCN1C(=O)[C@H](CCC(=O)O)N=C(c2ccccc2)c2ccccc21,inhibition,[1],0%
same,IC50,[2]; read-out: IC50,> 30 µM
O=C(CCCCCC(=O)N/N=C/c1ccc(-c2ccccc2)cc1)NO,IC50,[2]; read-out: pIC50 (converted),0.891 µM
CC(C)(C)OC(=O)NCCCC[C@@H]1N=C(c2ccccc2)c2ccccc2N(CCCCC(=O)O)C1=O,inhibition,[1],0%
same,IC50,[2]; read-out: IC50,> 30 µM
CC(C)(C)OC(=O)C[C@@H]1N=C(c2ccccc2)c2ccccc2N(CCCCC(=O)NO)C1=O,inhibition,[1],38.8%
same,IC50,[2]; read-out: IC50,> 30 µM
O=C(CCCNC(=O)C[C@@H]1N=C(c2ccccc2)c2ccccc2NC1=O)NO,inhibition,[1],70.3%
same,IC50,[2]; read-out: IC50,12.8 µM
O=C(O)C[C@H]1N=C(c2ccccc2)c2ccccc2NC1=O,inhibition,[1],0%
same,IC50,[2]; read-out: IC50,> 30 µM
C[C@@H](O)[C@@H]1N=C(c2ccccc2)c2ccccc2N(CCCCC(=O)NO)C1=O,inhibition,[1],0.91%
same,IC50,[2]; read-out: IC50,> 30 µM
NCCCC[C@@H]1N=C(c2ccccc2)c2ccccc2N(CCCCC(=O)NO)C1=O,inhibition,[1],4.32%
same,IC50,[2]; read-out: IC50,> 30 µM
CC(C)(C)OC(=O)C[C@H]1N=C(c2ccccc2)c2ccccc2NC1=O,inhibition,[1],0%
same,IC50,[2]; read-out: IC50,> 30 µM
CC(=O)SCC/C=C/[C@@H]1CC(=O)NCc2ccc(cc2)C2=N[C@@](C)(CS2)C(=O)N[C@@H](C(C)C)C(=O)O1,inhibition,[1],inactive
same,IC50,[2]; read-out: IC50,> 30 µM
Cn1cc(C2=C(c3cn(CCCCCC(=O)NO)c4ccccc34)C(=O)NC2=O)c2ccccc21,IC50,[2]; read-out: pIC50 (converted),1.41 µM
O=C(CCCCN1C(=O)[C@H](CC(=O)NO)N=C(c2ccccc2)c2ccccc21)NO,inhibition,[1],5.21%
same,IC50,[2]; read-out: IC50,> 30 µM
O=C1Nc2ccccc2C(c2ccccc2)=N[C@H]1Cc1cn(C(c2ccccc2)(c2ccccc2)c2ccccc2)cn1,inhibition,[1],9.68%
same,IC50,[2]; read-out: IC50,> 30 µM
CN(C)c1ccc(C(=O)NCC2CCC(C(=O)NO)CC2)cc1 (stereo not drawn),IC50,[2]; read-out: pIC50 (converted),12 µM
CC(C)[C@@H]1N=C(c2ccccc2)c2ccccc2NC1=O,inhibition,[1],0%
same,IC50,[2]; read-out: IC50,> 30 µM
CC(C)(C)OC(=O)CC[C@H]1N=C(c2ccccc2)c2ccccc2NC1=O,inhibition,[1],12.3%
same,IC50,[2]; read-out: IC50,> 30 µM
O=C(CCCCN1C(=O)[C@H](Cc2cnc[nH]2)N=C(c2ccccc2)c2ccccc21)NO,inhibition,[1],4.11%
same,IC50,[2]; read-out: IC50,> 30 µM
CC(C)(C)OC(=O)CC[C@@H]1N=C(c2ccccc2)c2ccccc2N(CCCCC(=O)O)C1=O,inhibition,[1],0%
same,IC50,[2]; read-out: IC50,> 30 µM
CN(C)c1ccc(C(=O)NCCCCCCC(=O)NO)cc1,IC50,[2]; read-out: pIC50 (converted),3.16 µM
CC(/C=C/C(=O)NO)=C\[C@@H](C)C(=O)c1ccc(N(C)C)cc1 [TRICHOSTATIN],IC50,[2]; read-out: IC50,3.62 µM
CC(C)(C)OC(=O)n1c(C[C@@H]2N=C(c3ccccc3)c3ccccc3N(CCCCC(=O)O)C2=O)cc2ccccc21,inhibition,[1],0%
same,IC50,[2]; read-out: IC50,> 30 µM
CC(C)(C)Oc1ccc(C[C@@H]2N=C(c3ccccc3)c3ccccc3NC2=O)cc1,inhibition,[1],0%
same,IC50,[2]; read-out: IC50,> 30 µM
COC(=O)CCCCN1C(=O)[C@H](CCSC)N=C(c2ccccc2)c2ccccc21,inhibition,[1],0%
same,IC50,[2]; read-out: IC50,> 30 µM
Cc1ccc(CN(Cc2ccc(C(=O)NO)cc2)S(=O)(=O)c2ccc(F)c(C)c2)cc1,IC50,[2]; read-out: pIC50 (converted),5.62 µM
O=C(NO)C1CCN(S(=O)(=O)c2ccc3c(c2)CCC3)CC1,IC50,[2]; read-out: pIC50 (converted),3.02 µM
C[C@H]1Sc2ccc(C(=O)NO)cc2NC1=O,IC50,[2]; read-out: pIC50 (converted),1.48 µM
O=C(NO)c1sc2ccccc2c1Cl,IC50,[2]; read-out: pIC50 (converted),4.37 µM
O=C(CS)NCCCCCC(=O)Nc1ccccc1,IC50,[2]; read-out: pIC50 (converted),50.1 µM
CCC(=O)CCCCC[C@@H]1NC(=O)C2CCCCN2C(=O)[C@H](C(C)CC)NC(=O)[C@H](Cc2cn(OC)c3ccccc23)NC1=O (stereo partly drawn),IC50,[2]; read-out: IC50,28.8 µM
O=C(CCCCCN1C(=O)c2cccc3cccc(c23)C1=O)NO,IC50,[2]; read-out: IC50,1.77 µM
N[C@H](Cc1ccc(Cl)cc1Cl)C(=O)N1Cc2ccccc2C1,IC50,[2]; read-out: IC50,29.1 µM
CN1CCc2c(c3ccccc3n2Cc2ccc(C(=O)NO)cc2)C1 [TUBASTATIN A],IC50,[2]; read-out: pIC50 (converted),1.48 µM
COC(=O)[C@H](Cc1ccccc1)NC(=O)CCCCCCCCC(=O)NO,IC50,[2]; read-out: pIC50 (converted),0.794 µM
Cc1[nH]c2ccccc2c1CCNCc1ccc(/C=C/C(=O)NO)cc1 [PANOBINOSTAT],IC50,[2]; read-out: IC50,0.45 µM
